The values that follow come from US10709784B2, “Metal chelating compositions and methods for controlling the growth or activities of a living cell or organism” (CHELATION PARTNERS INCORPORATED, priority 2011, dated 2020).

The nature of experiment [1]: Overall Fe association constants. It is filed as binding. As to conditions: Fe (III). From the text:
Measurement of the Fe binding strengths can be measured and compared for different chelating materials.

A further experiment has as its system P. aeruginosa. Briefly: MIC of chelators in Fe-restricted RPMI. In kind it is cell-based, Pseudomonas aeruginosa. On the procedure:
(§1) Soluble chelating compositions prepared as in example 4 and example 6 as well as the commercially clinically used low molecular weight (<1500 Da) chelators desferal (Novartis Pharmaceutical Company) and deferiprone (Apotex Pharmaceutical Company) were tested as to their MICs against representative pathogenic bacterial species in RPMI medium that had been treated as in example 38 but to which Fe was re-added to known concentrations that permitted growth of the bacteria under partially Fe restrictive conditions, i.e., so as to simulate the low Fe environmental supply available during infection by these bacteria in man or other animals. MIC testing was done in a manner similar to that described for example 15 but with test series being conducted in multi-well microtiter plates, each well providing a separate treatment test.
(§2) The clinically used chelators were not inhibitory in the case of Pseudomonas aeruginosa with no inhibition observed at the highest concentration tested (300 μg/ml for desferal and 100 μg/ml for deferiprone). Staphylococcus aureus was not inhibited by desferal and was inhibited by deferiprone to a lesser extent than for the soluble compositions of the present invention. Conversely, Escherichia coli was not inhibited by deferiprone but was inhibited substantially by desferal.

In experiment [2] the test system is Clinical isolates of Staphylococcus aureus. Briefly: Growth inhibition of clinical isolates in MHB (turbidity 600 nm). In kind it is cell-based. The settings on record: over 7 mM Fe binding equivalents, overnight. From the text: Clinical isolates of Staphylococcus aureus as obtained from human infections were obtained and are obtainable from the culture collection of Warren Grubb, Curtin University, Perth, Australia. It should be noted that the clinical isolates as obtained from patients at the Royal Perth Hospital in Perth Australia can be expected to have strong similarities to other clinical isolates of this bacterium as obtained elsewhere in the world as the genetic determinants of antibiotic resistance characteristics in Staphylococcus aureus are now generally understood. Thus, similar results to those shown in examples 14-17 can be expected with other clinical isolates as obtained elsewhere and having similar antibiotic resistance patterns to those tested for these examples. […]
A range of dilutions of the deferiprone or soluble chelating composition was prepared in MHB in test tubes so as to provide a range of added iron chelating capacity as measured in Fe binding equivalents. […] The tubes were incubated at an angle on a reciprocating shaker at 37° C. overnight and the growth results were scored as a percentage of growth based on measured turbidity at a wavelength of 600 nm with a spectrophotometer of the test sample, as compared to a control samples that had received no added deferiprone or soluble chelating composition. […]

Experiment [3] has as its system Candida albicans ATCC 10231. Briefly: Growth with chelating materials of different molecular weight, 84 hours. It is filed as cell-based. The settings on record: 30° C., defined medium without added iron, FIG. 8. On the procedure:
Candida albicans ATCC 10231 was tested for its sensitivities to: the medical chelator deferiprone (#1 in the graph of FIG. 8) (a product of Apotex Pharmaceuticals); the precursor chemicals used for the preparation of soluble chelating compositions of the present invention, including 3-hydroxy-2-methyl-4-pyrone (#2 in the graph of FIG. 8), AHMP as from Example 1 (#3 in the graph of FIG. 8) and MAHMP as from Example 2 (#4 in the graph of FIG. 8) and also the soluble chelating composition as from Example 4 (#5 in the graph of FIG. 8). The yeast was grown in defined medium as for Example 18 with no additional added iron (i.e., the only but adequate Fe available for the yeast was contributed from being present along with the other added medium components). Growth of the yeast in the defined media with added test chelating materials was compared to control samples that had not received any of the chelating materials following 84 hours of incubation and growth at 30° C. […] These chelators being internalized by the yeast were incapable of restricting iron supply to the yeast cells. […] Thus, low molecular weight chelators such as deferiprone and similar compounds permitted growth while the soluble chelating composition that contained functional groups similar to deferiprone but was a molecular weight higher than 1500 Daltons restricted growth, eventhough the various compounds tested were each capable of binding iron through their pyridinone functionality.

A further experiment has as its system E. coli. Description: MIC of chelators in Fe-restricted RPMI. It is filed as cell-based, Escherichia coli. As for the experimental part:
as §1, §2

In a further experiment the test system is S. aureus. Description: MIC of chelators in Fe-restricted RPMI. As to conditions: Staphylococcus aureus. In kind it is cell-based. On the procedure: as §1, §2
Experiment [4] deals with antibiotic resistant strains of Staphylococcus aureus. Description: NCCLS MIC antibiotic sensitivity with added chelator. In kind it is cell-based. As to conditions: strain WBG525. As for the experimental part: Sensitive or antibiotic resistant strains of Staphylococcus aureus (S. aureus) were grown on blood agar plates overnight at 37° C. Four to six individual colonies of each strain were harvested into Mueller-Hinton broth (MHB) and incubated at 37° C. until they reached an optical density equal to or exceeding a 0.5 McFarland standard. The culture was diluted with MHB to equal 0.5 McFarland standard. Dilutions (10^−1) of these standards were used for inocula. Various stains of antibiotic resistant Staphylococcus aureus were used for these tests as shown in the results below. It should be appreciated that growing the bacterial strains on blood agar and then in MHB ensured the inoculum was not restricted for iron prior to the test but rather the bacterial cells were with ample endogenous iron supply.
A range of two-fold dilutions of a test antibiotic was prepared in MHB. […] Soluble and insoluble chelating compositions, as prepared in Example 6 or Example 5, or the free iron chelating agent deferiprone were added to the antibiotic containing tubes at known concentrations of iron binding capacity (referred to as iron binding equivalents) to allow direct comparison of the different compositions or free chelator. The final volume per tube was 500 μl. Bacterial inoculum, 25 μl of the 10^−1 dilutions of the appropriate S. aureus strain was added to each tube. The tubes were incubated at an angle on a reciprocating shaker at 37° C. overnight and results were scored as growth based on turbidity or no growth (lack of turbidity). The Minimum Inhibitory Concentration (MIC) for the antibiotic was determined from the growth results.
A series of tests was set up as in Example 15 with various antibiotic anti-cellular agents. The clinically isolated strains were obtained from the culture collection of Warren Grubb, Curtin University, Perth, Australia.
A series of antibiotic sensitivity tests was set up as in example 16 utilizing the soluble chelating compositions as prepared in Example 6. Separate test series with different clinically isolated Staphylococcus aureus strains, as obtained from the culture collection of Warren Grubb, Curtin University, Perth, Australia, and various antibiotics were employed but for each series a control test comprising addition of iron sufficient to supply two times the chelating capacity of the supplied chelating composition was also included.

The MIC is the smallest concentration in the dilution series that meets the test's criterion for growth inhibition.

Each structure is given as a SMILES string. Where two headings read alike, the source gives them in different places.

As for `Cc1c(O)c(=O)ccn1C` [Deferiprone, 1,2-dimethyl-3-hydroxy-pyridin-4-one], the “Log 10 K(assoc)” value in experiment [1] stood at 36. Moreover, the MIC was over 100 µg/mL in the experiment on P. aeruginosa (Pseudomonas aeruginosa, treated RPMI with 0.02 μM Fe, read-out: MIC); over 100 µg/mL with P. aeruginosa (treated RPMI with 0.09 μM Fe); over 100 µg/mL in the experiment with E. coli (Escherichia coli, treated RPMI with 0.02 μM Fe, read-out: MIC); over 100 µg/mL in the experiment on E. coli (treated RPMI with 0.09 μM Fe); 12.5 µg/mL in the experiment on S. aureus (treated RPMI with 0.02 μM Fe); 25 µg/mL in the experiment with S. aureus (treated RPMI with 0.09 μM Fe). In addition, the inhibition of growth entry in experiment [2] was “about 15%”. Also, in experiment [3], the “growth of the yeast compared to control” value was “did not substantially restrict growth”. Besides, the “MIC Streptomycin” value in experiment [4] (chelator added 7.4 mM Fe binding equivalents, * slight growth <5% of control turbidity at 640 μg/ml) is >640* μg/ml. Also, in experiment [4] (chelator added 15 mM Fe binding equivalents), the “growth at 640 μg/ml streptomycin” value was “still allowed slight growth”.
